Results taken from ChEMBL document CHEMBL1147126, “Habbemines A and B, pyrrolidine alkaloids with human delta-opioid receptor binding affinity from the leaves of Elaeocarpus habbemensis” (J Nat Prod, 2007).
pIC50: −log10 of the molar value.

Target: Delta-type opioid receptor (Homo sapiens, UniProt P41143)
Assay: Displacement of [125I]deltorphin 2 from human recombinant delta opioid receptor expressed in HEK cell membrane
Type: cell membranes, HEK293

Delta-type opioid receptor, sequence (P41143 whole entry): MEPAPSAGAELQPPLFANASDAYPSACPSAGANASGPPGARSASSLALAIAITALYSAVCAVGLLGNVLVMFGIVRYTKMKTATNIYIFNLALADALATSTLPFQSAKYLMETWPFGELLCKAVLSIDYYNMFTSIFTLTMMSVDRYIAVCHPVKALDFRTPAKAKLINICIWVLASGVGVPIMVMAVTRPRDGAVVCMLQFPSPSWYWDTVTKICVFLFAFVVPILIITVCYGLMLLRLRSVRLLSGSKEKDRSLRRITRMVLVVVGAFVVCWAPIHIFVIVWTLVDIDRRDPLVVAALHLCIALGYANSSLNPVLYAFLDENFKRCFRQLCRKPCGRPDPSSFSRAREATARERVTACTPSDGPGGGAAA

| pIC50 | Compound |
| --- | --- |
| 4.49 | C[C@H]1CC=CC(=O)[C@@H]1C(=O)C[C@@H]1CCCN1CCCO [HABBEMINES A] |
| 4.49 | C[C@H]1CC=CC(=O)[C@@H]1C(=O)C[C@H]1CCCN1CCCO [HABBEMINES B] |
